Laboratory results taken from US7247627B2, “Salts and polymorphs of a pyrrole-substituted indolinone compound” (Pharmacia & Upjohn Company, priority 2003, dated 2007).

Assay: Chemical stability in temperature and humidity-controlled chamber (Example 2)
Assay type: physicochemical
Design: key to Appearance: U: unchanged
Description: Chemical stability was assessed for two different samples of 5-[(Z)-(5-fluoro-2-oxo-1,2-dihydro-3H-indol-3-ylidene)methyl]-N-[(2S)-2-hydroxy-3-morpholin-4-ylpropyl]-2,4-dimethyl-1H-pyrrole-3-carboxamide maleate salt, polymorph Form 1. Samples were maintained in a temperature and humidity-controlled chamber at 25° C. and 60% relative humidity (Tables 7 and 8) or at 40° C. and 75% relative humidity (Tables 9 and 10). At various time intervals, material was removed and tested for maleate counterion assay, impurities, water content and enantiomeric purity.
The maleate counterion assay was determined by ion exchange chromatography (IEC).
A suitable amount of the maleate salt is dissolved in water (Milli Q grade) and analyzed by IEC, and compared to calibration samples. Under these conditions, the peak due to maleic acid has a retention time of about 11 minutes. The amount of maleic acid in the sample is calculated as: % Assay=(Cs/W)×100 where Cs is the concentration of maleic acid found in the sample, and W is the theoretical sample concentration in the aqueous solution.
The amounts of impurities and degradation products were determined by HPLC, using a Perkin Elmer LC 200 system with a diode array detector. The analytical column was a Waters Xterra RP18, 5 μm, 250×4.6 mm, and the guard column was a Waters Xterra RP18, 5 μm, 20×3.9 mm. Mobile phase A was a mixture of 90% 0.05 M ammonium acetate buffer at pH 5.5 and 10% acetonitrile. Mobile phase B was a mixture of 10% 0.05 M ammonium acetate buffer at pH 5.5 and 90% acetonitrile.
Flow rate was 1 mL/min, injection volume 30 μL, room temperature, 435 nm detection. Under these conditions, the peak due to the maleate salt has a retention time of about 24 minutes. Impurities are characterized by their relative retention time (RRT). The impurity at RRT=0.26 is the E isomer. The other impurities were not characterized.
Enantiomeric purity was determined by HPLC, using a Chiralpak AD analytical column, 10 μm, 250×4.6 mm (Daicel Chemical Industries, Ltd.) using an oven temperature of 30° C., a mobile phase of 2-propanol/heptane/diethylamine (50/50/0.1), an isocratic elution mode, a flow rate of 0.5 mL/min, injection volume of 50 μL, detector wavelength of 265 nm, dilution solvent 2-propanol/heptane (50/50) and a sample concentration of 0.3 mg/mL. Under these conditions, the S isomer has a retention time of about 15.5 minutes, and the R isomer has a retention time of about 22 minutes.
Water content was determined according to USP 25, <921>, Method Ic.

[1] = 25° C. and 60% Relative Humidity, 1 mo.
[2] = 25° C. and 60% Relative Humidity, 3 mo.
[3] = 25° C. and 60% Relative Humidity, 6 mo.
[4] = 25° C. and 60% Relative Humidity, 9 mo.
[5] = 25° C. and 60% Relative Humidity, 12 mo.
[6] = 25° C. and 60% Relative Humidity, Initial
[7] = 40° C. and 75% Relative Humidity, 1 mo.
[8] = 40° C. and 75% Relative Humidity, 3 mo.
[9] = 40° C. and 75% Relative Humidity, 6 mo.
[10] = 40° C. and 75% Relative Humidity, Initial

**Q.** With `Cc1[nH]c(/C=C2\C(=O)Nc3ccc(F)cc32)c(C)c1C(=O)NC[C@H](O)CN1CCOCC1` [Sample A, 5-[(Z)-(5-fluoro-2-oxo-1,2-dihydro-3H-indol-3-ylidene)methyl]-N-[(2S)-2-hydroxy-3-morpholin-4-ylpropyl]-2,4-dimethyl-1H-pyrrole-3-carboxamide] as the compound, how does the Appearance [1] read?
**A.** U^a

**Q.** What about the “Assay (% free base equivalent)” value [1] of the same compound?
**A.** 97.5 % free base equivalent

**Q.** And the “Enantiomeric Purity (%)” value [1]?
**A.** >99.9%

**Q.** What about the “Impurities (%) RRT 0.26” value [1] of the same compound?
**A.** 0.28%

**Q.** And the “Impurities (%) RRT 0.51” value [1]?
**A.** 0.41%

**Q.** And the “Impurities (%) RRT 0.71” value [1]?
**A.** 0.06%

**Q.** And the “Impurities (%) RRT 1.53” value [1]?
**A.** 0.11%

**Q.** What about the “Impurities (%) RRT 1.74” value [1] of the same compound?
**A.** 0.10%

**Q.** What about the “Impurities (%) RRT 1.84” value [1] of the same compound?
**A.** 0.13%

**Q.** And the “Total Impurities (%)” value [1]?
**A.** 1.09%

**Q.** What about the “Water Content (%)” value [1] of the same compound?
**A.** 0.53%

**Q.** And the Appearance [2]?
**A.** U^a

**Q.** And the “Assay (% free base equivalent)” value [2]?
**A.** 98.4 % free base equivalent

**Q.** And the “Enantiomeric Purity (%)” value [2]?
**A.** >99.9%

**Q.** And the “Impurities (%) RRT 0.26” value [2]?
**A.** 0.05%

**Q.** And the “Impurities (%) RRT 0.51” value [2]?
**A.** 0.40%

**Q.** What about the “Impurities (%) RRT 1.53” value [2] of the same compound?
**A.** 0.12%

**Q.** What about the “Impurities (%) RRT 1.74” value [2] of the same compound?
**A.** 0.09%

**Q.** And the “Impurities (%) RRT 1.84” value [2]?
**A.** 0.12%

**Q.** What about the “Total Impurities (%)” value [2] of the same compound?
**A.** 0.78%

**Q.** And the “Water Content (%)” value [2]?
**A.** 0.68%

**Q.** What about the Appearance [3] of the same compound?
**A.** U^a

**Q.** And the “Assay (% free base equivalent)” value [3]?
**A.** 98.4 % free base equivalent

**Q.** And the “Enantiomeric Purity (%)” value [3]?
**A.** >99.9%

**Q.** And the “Impurities (%) RRT 0.26” value [3]?
**A.** 0.07%

**Q.** And the “Impurities (%) RRT 0.51” value [3]?
**A.** 0.42%

**Q.** What about the “Impurities (%) RRT 1.53” value [3] of the same compound?
**A.** 0.12%

**Q.** What about the “Impurities (%) RRT 1.74” value [3] of the same compound?
**A.** 0.09%

**Q.** What about the “Impurities (%) RRT 1.84” value [3] of the same compound?
**A.** 0.12%

**Q.** What about the “Total Impurities (%)” value [3] of the same compound?
**A.** 0.82%

**Q.** What about the “Water Content (%)” value [3] of the same compound?
**A.** 0.46%

**Q.** And the Appearance [4]?
**A.** U^a

**Q.** And the “Assay (% free base equivalent)” value [4]?
**A.** 98.4 % free base equivalent

**Q.** And the “Enantiomeric Purity (%)” value [4]?
**A.** >99.9%

**Q.** And the “Impurities (%) RRT 0.26” value [4]?
**A.** 0.15%

**Q.** And the “Impurities (%) RRT 0.51” value [4]?
**A.** 0.36%

**Q.** What about the “Impurities (%) RRT 1.53” value [4] of the same compound?
**A.** 0.12%

**Q.** And the “Impurities (%) RRT 1.74” value [4]?
**A.** 0.07%

**Q.** And the “Impurities (%) RRT 1.84” value [4]?
**A.** 0.10%

**Q.** And the “Total Impurities (%)” value [4]?
**A.** 0.77%

**Q.** What about the “Water Content (%)” value [4] of the same compound?
**A.** 0.42%

**Q.** What about the Appearance [5] of the same compound?
**A.** U^a

**Q.** What about the “Assay (% free base equivalent)” value [5] of the same compound?
**A.** 98.2 % free base equivalent

**Q.** What about the “Enantiomeric Purity (%)” value [5] of the same compound?
**A.** >99.9%

**Q.** What about the “Impurities (%) RRT 0.26” value [5] of the same compound?
**A.** 0.06%

**Q.** And the “Impurities (%) RRT 0.51” value [5]?
**A.** 0.33%

**Q.** And the “Impurities (%) RRT 1.53” value [5]?
**A.** 0.13%

**Q.** And the “Impurities (%) RRT 1.74” value [5]?
**A.** 0.07%

**Q.** And the “Impurities (%) RRT 1.84” value [5]?
**A.** 0.11%

**Q.** What about the “Total Impurities (%)” value [5] of the same compound?
**A.** 0.70%

**Q.** And the “Water Content (%)” value [5]?
**A.** 0.74%

**Q.** And the “Assay (% free base equivalent)” value [6]?
**A.** 98.7 % free base equivalent

**Q.** What about the “Enantiomeric Purity (%)” value [6] of the same compound?
**A.** >99.9%

**Q.** What about the “Impurities (%) RRT 0.26” value [6] of the same compound?
**A.** 0.09%

**Q.** And the “Impurities (%) RRT 0.51” value [6]?
**A.** 0.40%

**Q.** And the “Impurities (%) RRT 0.71” value [6]?
**A.** 0.05%

**Q.** What about the “Impurities (%) RRT 1.53” value [6] of the same compound?
**A.** 0.10%

**Q.** What about the “Impurities (%) RRT 1.74” value [6] of the same compound?
**A.** 0.09%

**Q.** What about the “Impurities (%) RRT 1.84” value [6] of the same compound?
**A.** 0.10%

**Q.** What about the “Total Impurities (%)” value [6] of the same compound?
**A.** 0.83%

**Q.** And the “Water Content (%)” value [6]?
**A.** 0.55%

**Q.** What about the Appearance [7] of the same compound?
**A.** U^a

**Q.** What about the “Assay (% free base equivalent)” value [7] of the same compound?
**A.** 97.9 % free base equivalent

**Q.** What about the “Enantiomeric Purity (%)” value [7] of the same compound?
**A.** 100.00%

**Q.** What about the “Impurities (%) RRT 0.26” value [7] of the same compound?
**A.** 0.29%

**Q.** What about the “Impurities (%) RRT 0.51” value [7] of the same compound?
**A.** 0.39%

**Q.** And the “Impurities (%) RRT 1.53” value [7]?
**A.** 0.11%

**Q.** What about the “Impurities (%) RRT 1.74” value [7] of the same compound?
**A.** 0.08%

**Q.** And the “Impurities (%) RRT 1.84” value [7]?
**A.** 0.13%

**Q.** And the “Total Impurities (%)” value [7]?
**A.** 1.00%

**Q.** And the “Water Content (%)” value [7]?
**A.** 0.57%

**Q.** And the Appearance [8]?
**A.** U^a

**Q.** What about the “Assay (% free base equivalent)” value [8] of the same compound?
**A.** 98.5 % free base equivalent

**Q.** And the “Enantiomeric Purity (%)” value [8]?
**A.** 100.00%

**Q.** And the “Impurities (%) RRT 0.26” value [8]?
**A.** 0.05%

**Q.** What about the “Impurities (%) RRT 0.51” value [8] of the same compound?
**A.** 0.40%

**Q.** And the “Impurities (%) RRT 1.53” value [8]?
**A.** 0.14%

**Q.** And the “Impurities (%) RRT 1.74” value [8]?
**A.** 0.08%

**Q.** And the “Impurities (%) RRT 1.84” value [8]?
**A.** 0.12%

**Q.** And the “Total Impurities (%)” value [8]?
**A.** 0.80%

**Q.** What about the “Water Content (%)” value [8] of the same compound?
**A.** 0.69%

**Q.** What about the Appearance [9] of the same compound?
**A.** U^a

**Q.** And the “Assay (% free base equivalent)” value [9]?
**A.** 98.0 % free base equivalent

**Q.** What about the “Enantiomeric Purity (%)” value [9] of the same compound?
**A.** 100.00%

**Q.** What about the “Impurities (%) RRT 0.26” value [9] of the same compound?
**A.** 0.07%

**Q.** And the “Impurities (%) RRT 0.51” value [9]?
**A.** 0.40%

**Q.** What about the “Impurities (%) RRT 1.53” value [9] of the same compound?
**A.** 0.15%

**Q.** And the “Impurities (%) RRT 1.74” value [9]?
**A.** 0.07%

**Q.** What about the “Impurities (%) RRT 1.84” value [9] of the same compound?
**A.** 0.12%

**Q.** And the “Total Impurities (%)” value [9]?
**A.** 0.81%

**Q.** What about the “Water Content (%)” value [9] of the same compound?
**A.** 0.42%

**Q.** What about the “Assay (% free base equivalent)” value [10] of the same compound?
**A.** 98.7 % free base equivalent

**Q.** And the “Enantiomeric Purity (%)” value [10]?
**A.** 100.00%

**Q.** What about the “Impurities (%) RRT 0.26” value [10] of the same compound?
**A.** 0.09%

**Q.** And the “Impurities (%) RRT 0.51” value [10]?
**A.** 0.40%

**Q.** And the “Impurities (%) RRT 0.71” value [10]?
**A.** 0.05%

**Q.** What about the “Impurities (%) RRT 1.53” value [10] of the same compound?
**A.** 0.10%

**Q.** What about the “Impurities (%) RRT 1.74” value [10] of the same compound?
**A.** 0.09%

**Q.** What about the “Impurities (%) RRT 1.84” value [10] of the same compound?
**A.** 0.10%

**Q.** What about the “Total Impurities (%)” value [10] of the same compound?
**A.** 0.83%

**Q.** What about the “Water Content (%)” value [10] of the same compound?
**A.** 0.55%
